Molecular target: T1, FGFR3 protein (Homo sapiens, UniProt P22607)
T1 construct: purchased Reaction Biology 1068
Assay: FGFR3 enzyme assay (KinEASE-TK HTRF kinase assay)
Assay type: biochemical
Details: 0.25 nM enzyme, ATP at Km, 15 min pre-incubation on ice, 30 min at 30° C.
Procedure: FGFR3 and FGFR1 Enzyme Assay
Enzyme activity was monitored using the KinEASE™-TK Assay Kit (Cisflio, Cat. No. 62TK0PEC) according to the manufacturer's instructions. All assays were performed at the respective KmATP for each kinase in KinEASE™ Kinase Buffer.
Titration of compounds were performed in a half-log manner in 100% dimethyl sulfoxide (DMSO) starting at 1 uM. Prior to the initiation of the reaction by adenosine triphosphate (ATP), FGFR1 protein and compounds were pre-incubated for 15 minutes at room temperature, and FGFR3 protein and compounds were pre-incubated on ice for 15 minutes. Reactions proceeded for 30 min at 30° C. Plates were quenched by the addition of the Anti-TK cryptate antibody/Streptavidin-XL665 mixture.
Ratios were converted to a percent of control (POC) using a ratiometric emission factor. One hundred POC was determined using no test compound, and 0 POC was determined in the presence of 1 uM of an appropriate control inhibitor.

T1 sequence (P22607 23-806): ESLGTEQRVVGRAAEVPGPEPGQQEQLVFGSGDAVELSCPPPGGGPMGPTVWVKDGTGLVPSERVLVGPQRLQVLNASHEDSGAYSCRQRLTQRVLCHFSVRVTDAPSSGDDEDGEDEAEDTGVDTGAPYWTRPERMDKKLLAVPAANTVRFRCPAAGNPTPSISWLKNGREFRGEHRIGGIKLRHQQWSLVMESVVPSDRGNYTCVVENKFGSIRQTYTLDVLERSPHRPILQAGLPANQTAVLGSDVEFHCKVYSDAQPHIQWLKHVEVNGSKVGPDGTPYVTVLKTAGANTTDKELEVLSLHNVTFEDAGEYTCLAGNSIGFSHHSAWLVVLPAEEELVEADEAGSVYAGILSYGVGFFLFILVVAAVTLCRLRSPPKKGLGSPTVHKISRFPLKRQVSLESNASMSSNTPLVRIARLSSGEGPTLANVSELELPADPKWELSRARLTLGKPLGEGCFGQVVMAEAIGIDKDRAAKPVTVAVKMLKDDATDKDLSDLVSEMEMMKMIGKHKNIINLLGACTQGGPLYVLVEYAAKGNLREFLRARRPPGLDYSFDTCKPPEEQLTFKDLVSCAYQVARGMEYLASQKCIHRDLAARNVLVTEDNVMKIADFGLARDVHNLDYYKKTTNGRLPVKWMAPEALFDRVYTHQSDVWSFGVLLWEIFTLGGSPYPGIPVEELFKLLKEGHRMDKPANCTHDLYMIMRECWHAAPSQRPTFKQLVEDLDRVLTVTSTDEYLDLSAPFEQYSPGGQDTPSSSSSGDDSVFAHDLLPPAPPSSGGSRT

Q: For `Cc1c(-c2cc(O[C@H](C)c3ccccn3)n3c(C#N)cnc3c2)nnn1C1CCN(C#N)CC1` [Example 201, 4-(4-[3-Cyano-5-[(1R)-1-(pyridin-2-yl)ethoxy]imidazo [1,2-a]pyridin-7-yl]-5-methyl-1,2,3-triazol-1-yl)piperidine-1-carbonitrile], which IC50 is on record?
A: The IC50 was less than 50 nM.

Q: How did the IC50 turn out when `Cc1c(-c2cc(O[C@H](C)c3ccc(F)cn3)n3c(C#N)cnc3c2)cnn1C1CCN(C#N)CC1` [Example 209] was run?
A: Its IC50 is less than 50 nM.

Q: `Cc1c(-c2cc(O[C@H](C)c3ccccn3)n3c(C#N)cnc3c2)nnn1C1CC2(CCN(C#N)CC2)C1` [Example 212, 7-[1-(7-Cyano-7-azaspiro[3.5]nonan-2-yl)-5-methyl-triazol-4-yl]-5-[(1R)-1-(2-pyridyl)ethoxy]imidazo [1,2-a]pyridine-3-carbonitrile] was tested. Which IC50 did it give?
A: Its IC50 is less than 50 nM.

Q: Which IC50 does the source give for `COc1cc(-c2cnn(C3CN([C@H]4CCCN(C#N)C4)C3)c2C)cn2ncc(C#N)c12` [Example 215, (3S)-3-[3-(4-[3-Cyano-4-methoxypyrazolo[1,5-a]pyridin-6-yl]-5-methylpyrazol-1-yl)azetidin-1-yl]piperidine-1-carbonitrile] here?
A: The IC50 was less than 50 nM.

Q: For `COc1cc(-c2cnn(C3CN([C@@H]4CCN(C#N)C4)C3)c2C)cn2ncc(C#N)c12` [Example 222, (3R)-3-[3-(4-[3-Cyano-4-methoxypyrazolo[1,5-a]pyridin-6-yl]-5-methylpyrazol-1-yl)azetidin-1-yl]pyrrolidine-1-carbonitrile], which IC50 is on record?
A: The IC50 was less than 50 nM.

Q: How did the IC50 turn out when `COc1cc(-c2cnn(C3CN(C4CC5CC(C4)N(C#N)C5)C3)c2C)cn2ncc(C#N)c12` (stereo not drawn) [Example 225, 6-(1-(1-(6-cyano-6-azabicyclo[3.2.1]octan-3-yl)azetidin-3-yl)-5-methyl-1H-pyrazol-4-yl)-4-methoxypyrazolo[1,5-a]pyridine-3-carbonitrile] was run?
A: The IC50 was less than 100 nM.

Q: For `Cc1c(-c2cc(O[C@H](C)c3ccccn3)n3c(C#N)cnc3c2)cnn1C1CN(C2CC3CCC2N3C#N)C1` (stereo partly drawn) [Example 226, 7-[1-[1-(7-Cyano-7-azabicyclo[2.2.1]heptan-2-yl)azetidin-3-yl]-5-methyl-pyrazol-4-yl]-5-[(1R)-1-(2-pyridyl)ethoxy]imidazo [1,2-a]pyridine-3-carbonitrile], which IC50 is on record?
A: Its IC50 is less than 50 nM.

Q: Which IC50 does the source give for `COc1cc(-c2cnn(C3CCN(C4CN(C#N)C4)CC3)c2C)cn2ncc(C#N)c12` [Example 228, 3-[4-(4-[3-Cyano-4-methoxypyrazolo[1,5-a]pyridin-6-yl]-5-methylpyrazol-1-yl)piperidin-1-yl]azetidine-1-carbonitrile] here?
A: The IC50 was less than 50 nM.

Q: Which IC50 does the source give for `Cc1c(-c2cc(O[C@H](C)c3ccccn3)n3c(Cl)cnc3c2)nnn1C1CN(C2CCN(C#N)CC2)C1` [Example 233, 4-[3-[4-[3-Chloro-5-[(1R)-1-(2-pyridyl)ethoxy]imidazo[1,2-a]pyridin-7-yl]-5-methyl-triazol-1-yl]azetidin-1-yl]piperidine-1-carbonitrile] here?
A: The IC50 was less than 100 nM.

Q: `Cc1c(-c2cc(O[C@H](C)C3CCOCC3)c3c(C#N)cnn3c2)cnn1C1CCN(C#N)CC1` [Example 245, 4-(4-[3-Cyano-4-[(1R)-1-(oxan-4-yl)ethoxy]pyrazolo [1,5-a]pyridin-6-yl]-5-methylpyrazol-1-yl)piperidine-1-carbonitrile] was tested. Which IC50 did it give?
A: The IC50 was less than 50 nM.

Q: Which IC50 does the source give for `Cc1c(-c2cc(O[C@H](C)c3ccccn3)n3c(C#N)cnc3c2)nnn1C1CCCN(C#N)CC1` (stereo partly drawn) [Example 257, 7-[1-(1-Cyanoazepan-4-yl)-5-methyl-triazol-4-yl]-5-[(1R)-1-(2-pyridyl)ethoxy] imidazo[1,2-a]pyridine-3-carbonitrile] here?
A: The IC50 was less than 50 nM.

Q: `Cc1c(-c2cc(O[C@H](C)c3nncn3CC(F)(F)F)n3c(C#N)cnc3c2)nnn1C1CCN(C#N)CC1` [Example 274, 7-[1-(1-Cyano-4-piperidyl)-5-methyl-triazol-4-yl]-5-[(1R)-1-[4-(2,2,2-trifluoroethyl)-1,2,4-triazol-3-yl]ethoxy]imidazo [1,2-a]pyridine-3-carbonitrile] was tested. Which IC50 did it give?
A: Its IC50 is less than 100 nM.

Q: `Cc1nc([C@@H](C)Oc2cc(-c3nnn(C4CCN(C#N)CC4)c3C)cn3ncc(C#N)c23)cs1` [Example 291, 6-[1-(1-Cyano-4-piperidyl)-5-methyl-triazol-4-yl]-4-[(1R)-1-(2-methylthiazol-4-yl)ethoxy]pyrazolo [1,5-a]pyridine-3-carbonitrile] was tested. Which IC50 did it give?
A: The IC50 was less than 50 nM.

Q: For `Cc1c(-c2cc(O[C@H](C)c3ccn(C)n3)c3c(C#N)cnn3c2)nnn1C1CCN(C#N)CC1` [Example 292, 6-[1-(1-Cyano-4-piperidyl)-5-methyl-triazol-4-yl]-4-[(1R)-1-(1-methylpyrazol-3-yl)ethoxy]pyrazolo [1,5-a]pyridine-3-carbonitrile], which IC50 is on record?
A: Its IC50 is less than 50 nM.

Q: How did the IC50 turn out when `Cc1c(-c2cc(O[C@H](C)c3ccccc3C#N)c3c(Cl)cnn3c2)cnn1C1CCN(C#N)CC1` [Example 297, 4-[4-[3-Chloro-4-[(1R)-1-(2-cyanophenyl)ethoxy]pyrazolo[1,5-a]pyridin-6-yl]-5-methyl-pyrazol-1-yl]piperidine-1-carbonitrile] was run?
A: Its IC50 is less than 50 nM.
